Structures can show the parent of a compound that is named as a salt.
Key:
Format in all cases: physicochemical
[1] = Example 1: degree of browning (chromaticity) on storage with added glycine; details: 1.5% solution, room temperature
Description: (Effect of addition of ascorbic acid 2-glucoside arginine salt on change in degree of browning (chromaticity) of ascorbic acid by addition of amino acid) 100 ml of water was taken to dissolve 1.5% of ascorbic acid (ASA), and the solution was adjusted to pH 5.0 with a 1M of sodium hydroxide solution to obtain a test solution. Ascorbic acid 2-glucoside arginine salt (ASA2-G⋅Arg) is used as a test solution by dissolving 1.5% of the product of Production Example 1 in 100 ml of water. To each test solution, 0.2% glycine was added and dissolved to prepare a solution, and the solution was stored (at room temperature) for 20 months. This test solution was collected every designated month, the absorption spectrum (wavelength: 480 nm) was measured, the degree of browning (chromaticity) was evaluated, and the results are shown in FIG. 3.
At time 0, the initial state immediately after the preparation was visually observed. In the other designated months, a spectrophotometer (absorption spectrum: wavelength 480 nm) was used for the measurement. In the case of ascorbic acid, browning started to occur at 4 months, transparency was visually observed, and light brown color remarkably appeared at 14 months. Meanwhile, in the ASA2-G⋅Arg added system, the initial state was confirmed.

[2] = Example 2: degree of browning (chromaticity) on storage with added amino acid mixture; details: 4% solution, room temperature
Description: 4% of ascorbic acid (ASA) is dissolved in 200 ml of water, and the solution is adjusted to pH 5.0 with a 1M sodium hydroxide solution to obtain a test solution. Ascorbic acid 2-glucoside lysine salt (ASA2-G⋅Lys) (Production Example 2) is dissolved in the same manner by 4% to prepare a test solution. An amino acid mixture (histidine 1.5%, alanine 1.28, leucine 2.6%) was added to and dissolved in each test solution, and the solution was stored (at room temperature) for 20 months. Each test solution was collected every designated month, the absorption spectrum (wavelength: 480 nm) was measured, the degree of browning (chromaticity) was evaluated, and the results are shown in FIG. 4.

[3] = Test system: browning of ascorbic acid caused by addition of an amino acid; details: 10 days after production
Description: For a reaction solution of ascorbic acid (1%) and amino acid (0.12%), the difference in degree of browning (chromaticity) based on the type of amino acid was examined for a 10 mM of phosphate citrate buffer solution pH 7.0. • Measurement wavelength: 480 nm, measurement time: 10 days after production

degree of browning (chromaticity) ([3]; ascorbic acid 1% + amino acid 0.12% (glycine, histidine, lysine or alanine), 10 mM phosphate citrate buffer pH 7.0, 480 nm) | degree of browning ([3]; ascorbic acid 1% + glycine or histidine 0.12%, pH 7.0, 480 nm) | time at which browning started to occur ([1]; pH 5.0, 0.2% glycine) [months] | time at which light brown color remarkably appeared ([1]; pH 5.0, 0.2% glycine) [months] | time after which browning appeared ([2]; pH 5.0, amino acid mixture (histidine, alanine, leucine)) [months] | Compound | appearance (transparency), visual observation ([1]; 0.2% glycine, 20 months) | absorbance (Abs) in the absorption spectrum ([1]; 480 nm, 0.2% glycine, 20 months) | appearance (color) ([2]; amino acid mixture, 20 months) | absorbance (Abs) of the absorption spectrum ([2]; 480 nm, amino acid mixture, 20 months)
– | – | – | – | – | O=C1OC([C@@H](O)CO)C(O)=C1OC1O[C@H](CO)[C@@H](O)[C@H](O)[C@H]1O (stereo partly shown) [ASA2-G⋅Arg, ascorbic acid 2-glucoside arginine salt] | initial state | 0.01 | – | –
– | – | – | – | – | O=C1OC([C@@H](O)CO)C(O)=C1OC1O[C@H](CO)[C@@H](O)[C@H](O)[C@H]1O (stereo partly shown) [ASA2-G⋅Lys, ascorbic acid 2-glucoside lysine salt] | – | – | extremely light reddish brown color | 0.017
high | remarkable | 4 | 14 | 4 | O=C1O[C@H]([C@@H](O)CO)C(O)=C1O [ascorbic acid, (R)-3,4-dihydroxy-5-((S)-1,2-dihydroxyethyl) furan-2 (5H)-one] | – | – | reddish brown color | –

From patent US20250017841A1, “COMPOUND CONTAINING ASCORBIC ACID DERIVATIVE” (DR'S CHOICE CO., LTD., priority 2021, published 2025)
